How the values were obtained:
[1] = system: β-catenin; test: Wnt reporter assay (TOP/FOP luciferase) in LiCl-treated HCT116 cells; type: cell-based; conditions: Homo sapiens, HCT-116, read-out: IC50, inhibition of β-catenin (luciferase reporter), LiCl 50 mM, 24 h
Description: Compounds 9 and 10 were assayed at increasing 10 and 100 nM and 1 μM concentrations in HCT116 cells transfected with luciferase-based vectors and treated with LiCl (50 mM). TOP TK is a well-established Wnt reporter vector containing eight sequences of Tcf/Lef binding site upstream of the timidine kinase (TK) minimal promoter, driving the expression of firefly luciferase.
Figure 6 HCT116 cells were transfected with luciferase-based vectors and treated with LiCl (50 mM) together with increasing concentrations of compound 9 or 10. Cells were harvested 24 h post-treatment and assayed for luciferase activity. Inhibitions were calculated as the luciferase/renilla ratio of the treated samples vs. the luciferase/renilla ratio of the untreated (control) samples. Data are represented as the mean ± SD of three independent experiments, each performed in triplicate. **p < 0.01, ***p < 0.001, n.s = not significant, as determined by analysis of variance (ANOVA).
Luciferase assays were performed as previously described.[58],[59] Briefly, HCT116 cells were transfected with Topflash reporter (M50 Super 8x TOPFlash, containing 8 repeats of TCF/LEF binding sites) or Fopflash reporter (M51 Super 8x FOPFlash, containing the mutated TCF/LEF binding sites) plasmids using the Dreamfect Gold Transfection Reagent (#DG80500, OZ Biosciences). […]

[2] = system: SW480 cells; test: Cell viability (XTT) of SW480 colon cancer cells; type: cell-based
Description: PKCδ has been recognized to be a proapoptotic kinase; its cleavage and activation promote apoptotic cell death (Table 2).[33]
Cell viability was evaluated by XTT[55] (SW480 cells) or MTT[56] (HCT116 cells) colorimetric assays. Briefly, cells (range 10–30 × 10^3 cells/well) were seeded in 96-well microculture plates and then exposed to increasing concentrations of different compounds (range 0–300 μM) for 48 or 72 h. […] Absorbance at 450 nm and a reference wavelength of 650 nm was then measured using a microplate spectrophotometer (Multiskan FC Microplate Photometer, Thermo Scientific, Waltham, MA). The cell growth inhibition rate was calculated utilizing the following formula: inhibition rate (%) = […] × 100, where Control OD is the absorbance of the negative control and Sample OD is the absorbance of the test sample. The IC50 values were determined with GraphPad Prism 5 through constructed dose–response curves.

[3] = system: HCT116 xenograft; test: In vivo HCT116 xenograft tumor growth inhibition; set-up: species or system BALB/C^nu/nu mice
Description: Ten-week-old female BALB/C^nu/nu mice were inoculated subcutaneously with HCT116 cells (1 × 10^8 cells/mL) at the logarithmic growth phase. Compound 9 (100 μL, 25 mg/kg) was administered through an intraperitoneal injection every 2 days after tumorigenesis. Mice were euthanized on day 30, and tumors on the backs were collected for the measurement of tumor volume and weight.
Figure 12 Compound 9 inhibited the in vivo tumorigenicity of human colorectal cancer line HCT116. (A) Tumor tissues. (B) Top panel. The volume of tumors originating. *p < 0.05 vs. the control group; t-test; n = 4. (B) Bottom panel. The weight of tumors originating. *p < 0.05 vs. the control group; t-test; n = 4. […] Magnification 200×.
Nuclear protein Ki67 is a proliferation marker of tumor cell proliferation and is an indicator in cancer diagnosis through a biopsy.[38] CD31 is a marker of angiogenesis, along with the vascular endothelial growth factor (VEGF).[39] CD31 has been found in the angiogenetic early breast cancer tissues and is highly expressed on the surface of endothelial cells.[40]
Briefly, all 10-week-old female BALB/C^nu/nu mice (8 mice) were purchased from the Shanghai University of Traditional Chinese Medicine with Institutional Animal Care and Use Committee approval in accordance with institutional guidelines. All mice were randomly divided into […]. In the #1 group (4 mice), 1 × 10^8 cells/mL from HCT116 at the logarithmic growth phase were harvested and inoculated subcutaneously into BALB/C^nu/nu mice and intraperitoneally injected with 100 μL of compound 9 (25 mg/kg) every 2 days after tumorigenesis. In the #2 group (4 mice), 1 × 10^8 cells/mL from […] at the logarithmic growth phase were harvested and inoculated subcutaneously into BALB/C^nu/nu mice and intraperitoneally injected 100 μL of saline every 2 days after tumorigenesis. After continuous feeding for 30 days, the mice were sacrificed, and the tumors were removed. The tumors were weighed, and the volumes were calculated using the following formula: tumor volume (cm^3) = (ab^2)/2 (a: the longest axis (cm), b: the shortest axis (cm))
Briefly, fresh tissues were immersed in 4% paraformaldehyde (Sigma-Aldrich) for fixation at room temperature for 30 min. The tissues were then dehydrated in an ethanol gradient, embedded in paraffin, sectioned (thickness: 6 μm), and immersed in xylene for dewaxing. Tissue sections were blocked with an immunohistochemical blocking solution (Beyotime Biotechnology Co., Ltd., Zhejiang, China) at 37 °C for 30 min. The blocking solution was then discarded, and the sections were washed 3 times at room temperature for 5 min each with an immunohistochemical washing solution (Beyotime Biotechnology). […]

[4] = 25 mg/kg i.p. every 2 days, day 30
[5] = immunofluorescence staining, 25 mg/kg i.p.

O=S(=O)(Nc1ccc(-c2ccccn2)cc1)c1ccc(Br)cc1 [Compound 9, 4-Bromo-N-(4-(pyridin-2-yl)phenyl)benzenesulfonamide]
IC50 [1]: > 1000 nM
improvement in SW480 cell growth inhibition compared with 5-FU [2]: 6 fold
tumor volume vs control group (saline) [3, 4]: significantly smaller
tumor weight vs control group (saline) [3, 4]: significantly smaller
expression of angiogenesis marker CD31 in tumor tissues [3, 5]: significantly lower expression
expression of proliferation factor Ki67 in tumor tissues [3, 5]: significantly lower expression

From publication PMC10353061 (ACS Pharmacology & Translational Science, 2023)
